Converted amounts (≈) assume the structure as drawn. “And” between values parts separate entries of the source, which are not always exact repeats. Equal values may be shown once. Read-outs that look alike come from different tables or passages of the source. Where a SMILES comes first, the peptide text is derived from it. [ ]: non-standard residue; d: D form. Ala(6-iPr-benzothiazol-2-yl) = CC(C)c1ccc2nc(C[C@H](N)C(=O)O)sc2c1; Ala(benzothiazol-2-yl) = N[C@@H](Cc1nc2ccccc2s1)C(=O)O; Phe(3-CF3) = N[C@@H](Cc1cccc(C(F)(F)F)c1)C(=O)O; Phe(3,5-F2) = N[C@@H](Cc1cc(F)cc(F)c1)C(=O)O; Phe(3-CN) = N#Cc1cccc(C[C@H](N)C(=O)O)c1; 2Nal = N[C@@H](Cc1ccc2ccccc2c1)C(=O)O; hPhe = N[C@@H](CCc1ccccc1)C(=O)O
Legend:
[1] = target: T1, DCN5 (Homo sapiens, UniProt Q9BTE7); test: Label-free BLI assay, DCN5; assay type: binding; details: concentrations up to 10 µM
T1 construct: DCN2 (residues 62–259), DCN3 (residues 86–304), DCN4 (residues 102–292) and DCN5 (residues 47–237); His6-TEV (N, cleaved yes); made in house; host or cells: Rosetta2 cells (E. coli)
T1 sequence (Q9BTE7 47-237): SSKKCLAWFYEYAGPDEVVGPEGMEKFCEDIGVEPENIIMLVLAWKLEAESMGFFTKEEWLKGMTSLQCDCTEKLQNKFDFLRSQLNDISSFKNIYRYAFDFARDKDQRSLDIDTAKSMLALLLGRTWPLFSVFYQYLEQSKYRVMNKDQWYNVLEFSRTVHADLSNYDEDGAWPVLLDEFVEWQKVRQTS

[2] = target: T2, DCN3 (Homo sapiens, UniProt Q8IWE4); test: Label-free BLI assay, DCN3; assay type: binding; details: concentrations up to 10 µM
T2 construct: DCN2 (residues 62–259), DCN3 (residues 86–304), DCN4 (residues 102–292) and DCN5 (residues 47–237); His6-TEV (N, cleaved yes); made in house; host or cells: Rosetta2 cells (E. coli)
T2 sequence (Q8IWE4 86-304): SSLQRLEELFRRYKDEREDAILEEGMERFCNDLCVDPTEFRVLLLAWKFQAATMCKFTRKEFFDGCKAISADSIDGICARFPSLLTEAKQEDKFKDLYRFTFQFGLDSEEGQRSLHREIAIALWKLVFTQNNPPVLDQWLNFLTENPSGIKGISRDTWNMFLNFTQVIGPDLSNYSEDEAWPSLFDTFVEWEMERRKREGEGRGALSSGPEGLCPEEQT

[3] = test system: NRF2 mRNA; test: qRT-PCR of NRF2 mRNA in THLE2 cells; assay type: cell-based; details: THLE2, 10 µM
Description: Total RNA in treated cells was isolated with the RNeasy Mini Kit (Qiagen, Germantown, MD). RNA was reverse transcribed into complementary DNA (cDNA) using high capacity RNA-to-cDNA kit (Applied Biosystems, Carlsbad, California). […] GAPDH was used as an internal reference. […] Error bars correspond to SD from three independent experiments.

[4] = target: T3, DCN4 (Homo sapiens, UniProt Q92564); test: Label-free BLI assay, DCN4; assay type: binding; details: concentrations up to 10 µM
T3 construct: DCN2 (residues 62–259), DCN3 (residues 86–304), DCN4 (residues 102–292) and DCN5 (residues 47–237); His6-TEV (N, cleaved yes); made in house; host or cells: Rosetta2 cells (E. coli)
T3 sequence (Q92564 102-292): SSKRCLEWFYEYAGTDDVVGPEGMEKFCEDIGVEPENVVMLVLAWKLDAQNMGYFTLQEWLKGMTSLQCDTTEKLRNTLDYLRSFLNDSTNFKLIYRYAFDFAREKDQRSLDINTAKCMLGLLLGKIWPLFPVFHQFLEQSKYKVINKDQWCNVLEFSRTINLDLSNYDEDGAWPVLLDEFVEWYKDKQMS

[5] = target: DCN1 (Homo sapiens, UniProt Q96GG9); test: Competitive fluorescence polarization (FP) binding assay with probe 46, DCN1; parameters: Human DCN1 (residues 58–259) were cloned into a pDEST17 plasmid containing an N-terminal His6 tag; made in house; host or cells: Rosetta2 cells (E. coli); details: for Ki: competitive FP, probe 46 5 nM, DCN1 50 nM; for times weaker (less potent) than 30 in binding to DCN1: comparator 30; for times less potent than 33 in binding to DCN1: comparator 33; for times less potent than 1 in binding to DCN1: comparator 1
Protocol: The FP competitive binding experiments were performed to determine the binding affinities of all synthesized DCN1 inhibitors. […] Serial dilutions of DCN1 or DCN2 protein were mixed with the probe (46) to a final volume of 200 μl in the assay buffer (100 mM phosphate buffer, pH = 6.5, with 0.02% Tween-20 and 2% DMSO). The final probe concentration was 5 nM in both DCN1 and DCN2 assays. Plates were incubated at room temperature for 30 min with gentle shaking for equilibrium.
The IC50 and Ki values of compounds were determined in competitive binding experiments. Mixtures of compounds in DMSO (4 μl) and of pre-incubated protein/probe complex solution (196 μl) in the assay buffer were added into assay plates that were incubated at room temperature for 30 min with gentle shaking. Final concentrations of DCN1 protein and fluorescent probe (46) were 50 and 5 nM, respectively. […] FP values were measured as described above. IC50 values were determined by nonlinear regression fitting of the competition curves using the dose response inhibition equation (four parameters, variable slopes) included in the Prism/GraphPad software. K i values were calculated using the methods described earlier.

[6] = thermodynamic from solid
Protocol: (§1) The equilibrium aqueous solubility of an individual compound at different pH values was determined with a small-scale shake-flask method in Eppendorf tubes. Compounds were added as powder in excess to Britton-Robinson buffer at pH 2.0 or phosphate buffer at pH 7.4 until heterogeneous suspensions were obtained. Suspensions containing excessive compound powder were sonicated in a water bath for 30 min followed by incubation at room temperature with shaking for 24 h to achieve thermodynamic equilibrium. […] Supernatants obtained were filtered using Millipore MultiScreen filter plates equipped with 0.45 µm membranes. Compound concentrations in the saturated solutions were measured by UV spectroscopy at the maximum absorption wavelengths of each compound that were pre-determined by a spectrum scan.

[7] = Equilibrium aqueous solubility, small-scale shake-flask method; details: for solubility / solubility at 24 h: thermodynamic from solid
Protocol: as §1

[8] = Britton-Robinson buffer, pH 2.02, aqueous buffer
[9] = phosphate buffer, pH 7.4, aqueous buffer

Chain of DCN1 (Q96GG9 58-259): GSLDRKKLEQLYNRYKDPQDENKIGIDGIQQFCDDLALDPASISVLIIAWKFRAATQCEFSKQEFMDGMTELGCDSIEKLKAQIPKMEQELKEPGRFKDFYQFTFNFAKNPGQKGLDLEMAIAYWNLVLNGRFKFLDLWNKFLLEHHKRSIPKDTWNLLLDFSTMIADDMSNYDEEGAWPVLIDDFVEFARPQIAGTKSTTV

CCC(=O)N[C@H](Cc1nc2ccc(C(C)C)cc2s1)C(=O)N[C@@H](CNC(=O)CCN1CCOCC1)C1CCCCC1 [DI-591DD]
binding to DCN5 (in words) [1]: no appreciable binding | binding to DCN3 (in words) [2]: no appreciable binding | mRNA level of NRF2 (in words) [3]: no effect | binding to DCN4 (in words) [4]: no appreciable binding

CC[C@H](C)[C@H](NC(=O)[C@H](CCSC)NC(C)=O)C(=O)N[C@@H](CCCCN)C(=O)N[C@@H](CC(C)C)C(N)=O [compound 9] (Ac-MIKL-NH2)
Ki [5]: 50 µM

CC[C@H](C)[C@H](NC(=O)[C@H](CCSC)NC(C)=O)C(=O)N[C@@H](CCCCN)C(N)=O [compound 10] (Ac-Met-Ile-Lys-NH2)
binding to DCN1 (in words) ([5]; at concentrations up to 1,000 µM): no appreciable binding | Ki [5]: > 1000 µM

CC[C@H](C)[C@H](NC(=O)[C@H](CCc1ccccc1)NC(C)=O)C(=O)N[C@@H](CCCCN)C(=O)N[C@@H](CC(C)C)C(N)=O [compound 12] (Ac-[hPhe]IKL-NH2)
factor by which binding affinity to DCN1 is decreased ([5]; homophenylalanine in place of Met1, compared with 9/11): 6

CC[C@H](C)[C@H](NC(=O)[C@H](Cc1cccc(C#N)c1)NC(C)=O)C(=O)N[C@@H](CCCCN)C(=O)N[C@@H](CC(C)C)C(N)=O [compound 16] (Ac-[Phe(3-CN)]IKL-NH2)
Ki [5]: > 1000 µM

CC[C@H](C)[C@H](NC(=O)[C@H](Cc1cccc(C(F)(F)F)c1)NC(C)=O)C(=O)N[C@@H](CCCCN)C(=O)N[C@@H](CC(C)C)C(N)=O [compound 17] (Ac-[Phe(3-CF3)]IKL-NH2)
Ki [5]: > 1000 µM

CC[C@H](C)[C@H](NC(=O)[C@H](Cc1cc(F)cc(F)c1)NC(C)=O)C(=O)N[C@@H](CCCCN)C(=O)N[C@@H](CC(C)C)C(N)=O [compound 20] (Ac-[Phe(3,5-F2)]IKL-NH2)
Ki [5]: 82 ± 9.1 µM

CC[C@H](C)[C@H](NC(=O)[C@H](Cc1c[nH]c2ccccc12)NC(C)=O)C(=O)N[C@@H](CCCCN)C(=O)N[C@@H](CC(C)C)C(N)=O [compound 21] (Ac-WIKL-NH2)
Ki [5]: 82 µM

CC[C@H](C)[C@H](NC(=O)[C@H](Cc1ccc2ccccc2c1)NC(C)=O)C(=O)N[C@@H](CCCCN)C(=O)N[C@@H](CC(C)C)C(N)=O [compound 23] (Ac-[2Nal]IKL-NH2)
times more potent than 11 in binding to DCN1 ([5]; comparator 11): 11 times

CC[C@H](C)[C@H](NC(=O)[C@H](Cc1nc2ccccc2s1)NC(C)=O)C(=O)N[C@@H](CCCCN)C(=O)N[C@@H](CC(C)C)C(N)=O [compound 24] (Ac-[Ala(benzothiazol-2-yl)]IKL-NH2)
solubility ([6]; pH 2.02, aqueous buffer): 1480 µM (≈ 912 µg/mL) | solubility ([6]; pH 7.4, aqueous buffer): 251 µM (≈ 155 µg/mL)

CC[C@H](C)[C@H](NC(=O)[C@H](Cc1nc2cc(Cl)ccc2s1)NC(C)=O)C(=O)N[C@@H](CCCCN)C(=O)N[C@@H](CC(C)C)C(N)=O [compound 25]
times less potent than 24 in binding to DCN1 ([5]; comparator 24): 17 times

CC[C@H](C)[C@H](NC(=O)[C@H](Cc1nc2ccc(Cl)cc2s1)NC(C)=O)C(=O)N[C@@H](CCCCN)C(=O)N[C@@H](CC(C)C)C(N)=O [compound 26]
times more potent than 24 in binding to DCN1 ([5]; comparator 24): 4 times

CC[C@H](C)[C@H](NC(=O)[C@H](Cc1nc2ccc(C(C)C)cc2s1)NC(C)=O)C(=O)N[C@@H](CCCCN)C(=O)N[C@@H](CC(C)C)C(N)=O [compound 27] (Ac-[Ala(6-iPr-benzothiazol-2-yl)]IKL-NH2)
times more potent than 9 in binding to DCN1 ([5]; comparator tetrapeptide 9): > 10,000 times | Ki [5]: 0.0047 ± 0.0014 µM | aqueous solubility (in words) [7]: poor | solubility ([7]; pH 2.02, aqueous buffer): 227 µM (≈ 150 µg/mL) | solubility ([7]; pH 7.4, aqueous buffer): 31 µM (≈ 20.5 µg/mL)

CC[C@H](C)[C@H](NC(=O)[C@H](Cc1nc2ccc(C(C)C)cc2s1)NC(C)=O)C(=O)N[C@@H](CCCCN)C(N)=O [compound 28]
times less potent than 27 in binding to DCN1 ([5]; comparator 27): 37 times | Ki [5]: 0.174 ± 0.023 µM | solubility ([7]; pH 2.02, aqueous buffer): > 20000 µM | solubility ([7]; pH 7.4, aqueous buffer): 7470 µM (≈ 4090 µg/mL)

CC[C@H](C)[C@H](NC(=O)[C@H](Cc1nc2ccc(C(C)C)cc2s1)NC(C)=O)C(N)=O [compound 29]
Ki [5]: 0.292 µM | solubility at 24 h [7, 8]: 1050 µM (≈ 440 µg/mL) | solubility at 24 h [7, 9]: 1280 µM (≈ 535 µg/mL)

CC[C@H](C)[C@@H](CN)NC(=O)[C@H](Cc1nc2ccc(C(C)C)cc2s1)NC(C)=O [compound 30]
Ki [5]: 0.066 µM and 0.0664 µM | solubility at 24 h ([7]; Britton-Robinson buffer, pH 2, aqueous buffer): > 20000 µM | solubility at 24 h [7, 8]: > 20000 µM | solubility at 24 h [7, 9]: > 20000 µM

CC[C@H](C)[C@@H](CN)NC(=O)[C@H](Cc1nc2ccc(C(C)C)cc2s1)NC=O [compound 31]
times weaker (less potent) than 30 in binding to DCN1 [5]: 34 times | Ki [5]: 2.24 ± 0.369 µM

CC[C@H](C)[C@@H](CN)NC(=O)[C@@H](N)Cc1nc2ccc(C(C)C)cc2s1 [compound 32]
times weaker (less potent) than 30 in binding to DCN1 [5]: > 1000 times | Ki [5]: 67 ± 8.3 µM

CCC(=O)N[C@@H](Cc1nc2ccc(C(C)C)cc2s1)C(=O)N[C@H](CN)[C@@H](C)CC [compound 33]
Ki [5]: 0.019 µM

CC[C@H](C)[C@@H](CN)NC(=O)[C@H](Cc1nc2ccc(C(C)C)cc2s1)NC(=O)C(C)C [compound 34]
Ki [5]: 0.061 µM

CCCC(=O)N[C@@H](Cc1nc2ccc(C(C)C)cc2s1)C(=O)N[C@H](CN)[C@@H](C)CC [compound 35]
Ki [5]: 0.27 ± 0.034 µM

CC[C@H](C)[C@@H](CN)NC(=O)[C@H](Cc1nc2ccc(C(C)C)cc2s1)NC(=O)NC [compound 36]
Ki [5]: 0.149 ± 0.028 µM

CCC(=O)N[C@@H](Cc1nc2ccc(C(C)C)cc2s1)C(=O)NCCN [compound 37]
times less potent than 33 in binding to DCN1 [5]: > 1000 times | Ki [5]: 32 ± 4.2 µM

CCC(=O)N[C@@H](Cc1nc2ccc(C(C)C)cc2s1)C(=O)N[C@@H](C)CN [compound 38]
times less potent than 33 in binding to DCN1 [5]: > 400 times | Ki [5]: 7.6 ± 0.38 µM

CCC(=O)N[C@@H](Cc1nc2ccc(C(C)C)cc2s1)C(=O)N[C@H](CN)Cc1ccccc1 [compound 39]
Ki [5]: 0.079 µM

CCC(=O)N[C@@H](Cc1nc2ccc(C(C)C)cc2s1)C(=O)N[C@H](CN)C1CCCCC1 [compound 40]
Ki [5]: 0.013 µM | aqueous solubility (in words) [7]: good | solubility at 24 h [7, 8]: 4750 µM (≈ 2110 µg/mL) | solubility at 24 h [7, 9]: 1910 µM (≈ 847 µg/mL)

CCC(=O)N[C@@H](Cc1nc2ccc(C(C)C)cc2s1)C(=O)N[C@H](CN(C)C)C1CCCCC1 [compound 41]
Ki [5]: 0.017 µM

CCC(=O)N[C@@H](Cc1nc2ccc(C(C)C)cc2s1)C(=O)N[C@H](CN1CCOCC1)C1CCCCC1 [compound 42]
Ki [5]: 0.044 µM

CCC(=O)N[C@@H](Cc1nc2ccc(C(C)C)cc2s1)C(=O)N[C@H](CNC(=O)CN1CCOCC1)C1CCCCC1 [compound 43]
Ki [5]: 0.019 µM and 0.0185 µM

Ac-MIKLFSLK-NH2 [compound 5]
times less potent than 1 in binding to DCN1 [5]: 2–3 times

Ac-MIKLFSLKQ-NH2 [compound 4]
times less potent than 1 in binding to DCN1 [5]: 2–3 times

Ac-MIKLFSLKQQ-NH2 [compound 3]
times less potent than 1 in binding to DCN1 [5]: 2–3 times
